# Several values for one entry are separate records, joined by “and”; a condition that tells them apart may be missing. Equal entries are not always repeated. Toxic doses and inconclusive results are not listed. Square brackets hold non-standard residues; d marks the D form. Peptide text beside a SMILES is read from it. * marks the point of attachment. ξ: configuration not given here. ξF = NC(Cc1ccccc1)C(=O)O; Cbz = O=C(OCc1ccccc1)*
# Test system: P388 leukemia ip, CD2F1 mice, survival T/C
# Assay: NCI In Vivo Anticancer Drug Screen. Data for tumor model P388 Leukemia (intraperitoneal) in CD2F1 (CDF1) mice
# Settings: endpoint: median survival time, higher = longer survival
# How it was run: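 Mice carrying the transplanted tumor received test compound or vehicle. Survival was recorded in each group, and the value is the treated-group measurement divided by that of the vehicle-treated control group.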
# [1] = dose: 100.0 mg/kg/injection, schedule: Q04DX003 (ip), vehicle: saline with Tween-80
# [2] = dose: 50.0 mg/kg/injection, schedule: Q01DX009 (ip), vehicle: Klucel (hydroxypropylcellulose) (HPC)
# [3] = dose: 100.0 mg/kg/injection, schedule: Q01DX009 (ip), vehicle: Klucel (hydroxypropylcellulose) (HPC)
# [4] = dose: 200.0 mg/kg/injection, schedule: Q01DX009 (ip), vehicle: Klucel (hydroxypropylcellulose) (HPC)
# [5] = dose: 100.0 mg/kg/injection, schedule: Q01DX005 (ip), vehicle: saline with Tween-80
# [6] = dose: 100.0 mg/kg/injection, schedule: Q01DX001 (ip), vehicle: Klucel (hydroxypropylcellulose) (HPC)
# [7] = dose: 200.0 mg/kg/injection, schedule: Q01DX001 (ip), vehicle: Klucel (hydroxypropylcellulose) (HPC)
# [8] = dose: 400.0 mg/kg/injection, schedule: Q01DX001 (ip), vehicle: Klucel (hydroxypropylcellulose) (HPC)
# [9] = dose: 50.0 mg/kg/injection, schedule: Q01DX009 (ip), vehicle: other
# [10] = dose: 100.0 mg/kg/injection, schedule: Q01DX009 (ip), vehicle: other
# [11] = dose: 200.0 mg/kg/injection, schedule: Q01DX009 (ip), vehicle: other
# [12] = dose: 60.0 mg/kg/injection, schedule: Q01DX005 (ip), vehicle: Klucel (hydroxypropylcellulose) (HPC)
# [13] = dose: 120.0 mg/kg/injection, schedule: Q01DX005 (ip), vehicle: Klucel (hydroxypropylcellulose) (HPC)
smiles,measurement,setting,value
CC(=O)c1c(O)c(C)c(O)c2c1OC1=Cc3c(c(C)nn3-c3ccccc3)C(=O)C12C (stereo unspecified),T/C,"dose: 6.25 mg/kg/injection, schedule: Q01DX009 (ip), vehicle: gum acacia",104 % of control and 108 % of control
same,T/C,"dose: 12.5 mg/kg/injection, schedule: Q01DX009 (ip), vehicle: gum acacia",103 % of control and 105 % of control
same,T/C,"dose: 25.0 mg/kg/injection, schedule: Q01DX009 (ip), vehicle: gum acacia",101 % of control and 105 % of control
same,T/C,"dose: 50.0 mg/kg/injection, schedule: Q01DX009 (ip), vehicle: gum acacia",98 % of control and 101 % of control
same,T/C,"dose: 100.0 mg/kg/injection, schedule: Q01DX009 (ip), vehicle: gum acacia",99 % of control and 93 % of control
same,T/C,"dose: 200.0 mg/kg/injection, schedule: Q01DX009 (ip), vehicle: gum acacia",86 % of control and 90 % of control
CC(=O)Oc1ccccc1,T/C,"dose: 50.0 mg/kg/injection, schedule: Q04DX003 (ip), vehicle: saline with Tween-80",103 % of control
same,T/C,[1],100 % of control
COc1ccc(O)c(CN2CCN(Cc3cc(OC)ccc3O)CC2)c1,T/C,"dose: 15.0 mg/kg/injection, schedule: Q01DX005 (ip), vehicle: saline with Tween-80",91 % of control
same,T/C,"dose: 30.0 mg/kg/injection, schedule: Q01DX005 (ip), vehicle: saline with Tween-80",86 % of control
Cc1ccc(S(=O)(=O)N2OC2c2ccccc2C)cc1 (stereo unspecified),T/C,[2],107 % of control
same,T/C,[3],106 % of control
same,T/C,[4],103 % of control
COc1ccc(CCN(C)CCCC(C#N)(c2ccc(OC)c(OC)c2)C(C)C)cc1OC (stereo unspecified),T/C,"dose: 1.0 mg/kg/injection, schedule: Q02HX018 (sc), vehicle: water",99 % of control
same,T/C,"dose: 2.0 mg/kg/injection, schedule: Q02HX018 (sc), vehicle: water",99 % of control
same,T/C,"dose: 4.0 mg/kg/injection, schedule: Q02HX006 (sc), vehicle: saline with Tween-80",100 % of control
same,T/C,"dose: 4.0 mg/kg/injection, schedule: Q02HX018 (sc), vehicle: water",103 % of control
same,T/C,"dose: 8.0 mg/kg/injection, schedule: Q02HX006 (sc), vehicle: saline with Tween-80",96 % of control
same,T/C,"dose: 8.0 mg/kg/injection, schedule: Q02HX018 (sc), vehicle: water",110 % of control
same,T/C,"dose: 8.0 mg/kg/injection, schedule: Q03HX006 (ip), vehicle: saline",104 % of control
same,T/C,"dose: 16.0 mg/kg/injection, schedule: Q02HX006 (sc), vehicle: saline with Tween-80",106 % of control
same,T/C,"dose: 16.0 mg/kg/injection, schedule: Q02HX018 (sc), vehicle: water",108 % of control
same,T/C,"dose: 16.0 mg/kg/injection, schedule: Q03HX006 (ip), vehicle: saline",101 % of control
same,T/C,"dose: 32.0 mg/kg/injection, schedule: Q02HX006 (sc), vehicle: saline with Tween-80",82 % of control
same,T/C,"dose: 32.0 mg/kg/injection, schedule: Q03HX006 (ip), vehicle: saline",103 % of control
same,T/C,"dose: 64.0 mg/kg/injection, schedule: Q02HX006 (sc), vehicle: saline with Tween-80",19 % of control
CN1CCCC(Cl)(C(=O)c2ccccc2)C1 (stereo unspecified),T/C,"dose: 100.0 mg/kg/injection, schedule: Q04DX003 (ip), vehicle: saline",106 % of control
same,T/C,"dose: 200.0 mg/kg/injection, schedule: Q04DX003 (ip), vehicle: saline",100 % of control
O=C(CNC(=O)OCc1ccccc1)NC(Cc1ccccc1)C(=O)O (stereo not drawn) (Cbz-Gly-[ξF]-OH),T/C,"dose: 50.0 mg/kg/injection, schedule: Q01DX005 (ip), vehicle: Klucel (hydroxypropylcellulose) (HPC)",105 % of control
same,T/C,"dose: 100.0 mg/kg/injection, schedule: Q01DX005 (ip), vehicle: Klucel (hydroxypropylcellulose) (HPC)",100 % of control
same,T/C,"dose: 200.0 mg/kg/injection, schedule: Q01DX005 (ip), vehicle: Klucel (hydroxypropylcellulose) (HPC)",104 % of control
CCCCC1(Cc2ccccc2)SC(=O)NC1=O (stereo unspecified),T/C,"dose: 50.0 mg/kg/injection, schedule: Q01DX005 (ip), vehicle: saline with Tween-80",98 % of control
same,T/C,[5],100 % of control
same,T/C,"dose: 200.0 mg/kg/injection, schedule: Q01DX005 (ip), vehicle: saline with Tween-80",91 % of control
CN1CCNc2c1cc(O)c1c2C(=O)c2ccccc2C1=O,T/C,[6],101 % of control
same,T/C,[7],94 % of control
same,T/C,[8],98 % of control
Cn1nc2c(c1-c1cccnc1)CCCc1ccccc1-2,T/C,"dose: 12.5 mg/kg/injection, schedule: Q01DX009 (ip), vehicle: other",113 % of control
same,T/C,"dose: 25.0 mg/kg/injection, schedule: Q01DX009 (ip), vehicle: other",110 % of control
same,T/C,[9],110 % of control
same,T/C,[10],99 % of control
same,T/C,[11],100 % of control
NC(N)=NS(=O)(=O)c1ccc(N2C(=O)CC3(CCCC3)C2=O)cc1,T/C,[2],99 % of control
same,T/C,[3],98 % of control
same,T/C,[4],112 % of control
CCOC(=O)Cc1csc(/C=C/c2ccc(OC)c(OC)c2)n1,T/C,"dose: 60.0 mg/kg/injection, schedule: Q01DX005 (ip), vehicle: saline with Tween-80",96 % of control
same,T/C,"dose: 120.0 mg/kg/injection, schedule: Q01DX005 (ip), vehicle: saline with Tween-80",96 % of control
same,T/C,"dose: 240.0 mg/kg/injection, schedule: Q01DX005 (ip), vehicle: saline with Tween-80",90 % of control
O=C(c1ccccc1)N1C=CN(C(=O)c2ccccc2)C(c2ccccc2)C1c1ccccc1 (stereo unspecified),T/C,[12],88 % of control
same,T/C,[13],90 % of control
C(#CCOc1ccc2c(c1)OCO2)COc1ccc2c(c1)OCO2,T/C,[9],103 % of control
same,T/C,[10],104 % of control
same,T/C,[11],105 % of control
CCCCNP1(NCCCC)=NP(NCCCC)(NCCCC)=NP(NCCCC)(NCCCC)=NP(NCCCC)(NCCCC)=N1,T/C,"dose: 12.5 mg/kg/injection, schedule: Q01DX005 (ip), vehicle: saline with Tween-80",106 % of control
same,T/C,"dose: 25.0 mg/kg/injection, schedule: Q01DX005 (ip), vehicle: saline with Tween-80",116 % of control
same,T/C,[5],88 % of control
CC(=O)n1c(Cl)c(C=O)c2ccccc21,T/C,[6],99 % of control
same,T/C,[7],99 % of control
same,T/C,[8],100 % of control
Cc1nc2[nH]c(=S)[nH]c(=O)c2nc1C,T/C,"dose: 100.0 mg/kg/injection, schedule: Q01DX009 (ip), vehicle: saline with Tween-80",104 % of control
same,T/C,[1],95 % of control
same,T/C,"dose: 200.0 mg/kg/injection, schedule: Q01DX009 (ip), vehicle: saline with Tween-80",100 % of control
same,T/C,"dose: 200.0 mg/kg/injection, schedule: Q04DX003 (ip), vehicle: saline with Tween-80",95 % of control
same,T/C,"dose: 400.0 mg/kg/injection, schedule: Q01DX009 (ip), vehicle: saline with Tween-80",95 % of control
same,T/C,"dose: 400.0 mg/kg/injection, schedule: Q04DX003 (ip), vehicle: saline with Tween-80",95 % of control
Cc1cc(C)nc(NC(=O)Nc2cc(Cl)ccc2C)c1,T/C,[12],88 % of control
same,T/C,[13],86 % of control
same,T/C,"dose: 240.0 mg/kg/injection, schedule: Q01DX005 (ip), vehicle: Klucel (hydroxypropylcellulose) (HPC)",89 % of control
O=[N+]([O-])O.O=[N+]([O-])O.[NH-]C(c1ccccc1)C([NH-])c1ccccc1.[Pt+2] (stereo unspecified),T/C,"dose: 6.25 mg/kg/injection, schedule: Q04DX002 (ip), vehicle: saline",161 % of control
same,T/C,"dose: 12.5 mg/kg/injection, schedule: Q04DX002 (ip), vehicle: saline",154 % of control
same,T/C,"dose: 25.0 mg/kg/injection, schedule: Q04DX002 (ip), vehicle: saline",154 % of control
COC(=O)C(CC=C(C)C)C(C)=O (stereo unspecified),T/C,"dose: 50.0 mg/kg/injection, schedule: Q01DX005 (ip), vehicle: saline",101 % of control
same,T/C,"dose: 100.0 mg/kg/injection, schedule: Q01DX005 (ip), vehicle: saline",101 % of control
same,T/C,"dose: 200.0 mg/kg/injection, schedule: Q01DX005 (ip), vehicle: saline",105 % of control
CCOC(=O)CC(C)(O)C1CC1 (stereo unspecified),T/C,"dose: 25.0 mg/kg/injection, schedule: Q01DX009 (ip), vehicle: Klucel (hydroxypropylcellulose) (HPC)",96 % of control
same,T/C,[2],101 % of control
same,T/C,[3],105 % of control and 94 % of control
same,T/C,[4],103 % of control and 122 % of control
CN1CCC/C1=C\C(=O)c1ccc([N+](=O)[O-])cc1,T/C,"dose: 100.0 mg/kg/injection, schedule: Q04DX003 (ip), vehicle: Klucel (hydroxypropylcellulose) (HPC)",107 % of control
same,T/C,"dose: 200.0 mg/kg/injection, schedule: Q04DX003 (ip), vehicle: Klucel (hydroxypropylcellulose) (HPC)",107 % of control
same,T/C,"dose: 400.0 mg/kg/injection, schedule: Q04DX003 (ip), vehicle: Klucel (hydroxypropylcellulose) (HPC)",93 % of control

# Reference: PubChem BioAssay AID330 (DTP/NCI, 2004)
